ChEMBL document CHEMBL2440076, “New triarylpyrazoles as broad-spectrum anticancer agents: design, synthesis, and biological evaluation” (Eur J Med Chem, 2013)
pIC50: −log10 of the molar value.

Assays:
[1] = system: SN12C; assay: Growth inhibition of human SN12C cells assessed as cell growth at 10 uM after 48 hrs by sulforhodamine B assay; format: functional; conditions: read-out: Activity
[2] = system: SK-MEL-28; assay: Growth inhibition of human SK-MEL-28 cells after 48 hrs by sulforhodamine B assay; format: functional; conditions: SK-MEL-28, 48 h
[3] = system: A498; assay: Growth inhibition of human A498 cells assessed as cell growth at 10 uM after 48 hrs by sulforhodamine B assay; format: functional; conditions: A498, 48 h, read-out: Activity
[4] = system: SW-620; assay: Growth inhibition of human SW620 cells after 48 hrs by sulforhodamine B assay; format: functional; conditions: SW-620, 48 h; for CC50: read-out: LC50 (the source's name)
[5] = system: BT-549; assay: Growth inhibition of human BT549 cells assessed as cell growth at 10 uM after 48 hrs by sulforhodamine B assay; format: functional; conditions: BT-549, 48 h, read-out: Activity
[6] = system: NCI-H226; assay: Growth inhibition of human NCI-H226 cells assessed as cell growth at 10 uM after 48 hrs by sulforhodamine B assay; format: functional; conditions: NCI-H226, 48 h, read-out: Activity
[7] = system: SF-295; assay: Growth inhibition of human SF295 cells after 48 hrs by sulforhodamine B assay; format: functional, cell-based; conditions: SF-295, 48 h; for CC50: read-out: LC50 (the source's name)
[8] = system: ACHN; assay: Growth inhibition of human ACHN cells after 48 hrs by sulforhodamine B assay; format: functional; conditions: for CC50: read-out: LC50 (the source's name)
[9] = system: MOLT-4; assay: Growth inhibition of human MOLT4 cells assessed as cell growth at 10 uM after 48 hrs by sulforhodamine B assay; format: functional; conditions: MOLT-4, 48 h, read-out: Activity
[10] = system: SF-539; assay: Growth inhibition of human SF539 cells after 48 hrs by sulforhodamine B assay; format: functional; conditions: SF-539, 48 h
[11] = system: COLO 205; assay: Growth inhibition of human COLO205 cells after 48 hrs by sulforhodamine B assay; format: functional; conditions: COLO 205, 48 h
[12] = system: NCI-H522; assay: Growth inhibition of human NCI-H522 cells after 48 hrs by sulforhodamine B assay; format: functional; conditions: NCI-H522, 48 h
[13] = system: CAKI-1; assay: Growth inhibition of human CAKI-1 cells assessed as cell growth at 10 uM after 48 hrs by sulforhodamine B assay; format: functional; conditions: CAKI-1, 48 h, read-out: Activity
[14] = system: SF-539; assay: Growth inhibition of human SF539 cells assessed as cell growth at 10 uM after 48 hrs by sulforhodamine B assay; format: functional; conditions: SF-539, 48 h, read-out: Activity
[15] = system: UACC-257; assay: Growth inhibition of human UACC257 cells assessed as cell growth at 10 uM after 48 hrs by sulforhodamine B assay; format: functional; conditions: UACC-257, 48 h, read-out: Activity
[16] = system: UACC-62; assay: Growth inhibition of human UACC62 cells assessed as cell growth at 10 uM after 48 hrs by sulforhodamine B assay; format: functional; conditions: UACC-62, 48 h, read-out: Activity
[17] = system: MDA-MB-435; assay: Growth inhibition of human MDA-MB-435 cells assessed as cell growth at 10 uM after 48 hrs by sulforhodamine B assay; format: functional; conditions: MDA-MB-435, 48 h, read-out: Activity
[18] = system: KM12; assay: Growth inhibition of human KM12 cells assessed as cell growth at 10 uM after 48 hrs by sulforhodamine B assay; format: functional; conditions: KM12, 48 h, read-out: Activity
[19] = Growth inhibition of human HCC2998 cells after 48 hrs by sulforhodamine B assay; format: functional; conditions: HCC 2998, 48 h; for CC50: read-out: LC50 (the source's name)
[20] = system: ACHN; assay: Growth inhibition of human ACHN cells assessed as cell growth at 10 uM after 48 hrs by sulforhodamine B assay; format: functional; conditions: read-out: Activity
[21] = system: 786-0; assay: Growth inhibition of human 786-0 cells assessed as cell growth at 10 uM after 48 hrs by sulforhodamine B assay; format: functional; conditions: 786-0, 48 h, read-out: Activity
[22] = system: A498; assay: Growth inhibition of human A498 cells after 48 hrs by sulforhodamine B assay; format: functional, cell-based; conditions: A498, 48 h; for CC50: read-out: LC50 (the source's name)
[23] = system: BT-549; assay: Growth inhibition of human BT549 cells after 48 hrs by sulforhodamine B assay; format: functional; conditions: BT-549, 48 h
[24] = system: MCF7; assay: Growth inhibition of human MCF7 cells assessed as cell growth at 10 uM after 48 hrs by sulforhodamine B assay; format: functional; conditions: MCF7, 48 h, read-out: Activity
[25] = system: RPMI-8226; assay: Growth inhibition of human RPMI8226 cells assessed as cell growth at 10 uM after 48 hrs by sulforhodamine B assay; format: functional; conditions: RPMI-8226, 48 h, read-out: Activity
[26] = system: NCI-H322M; assay: Growth inhibition of human NCI-H322M cells assessed as cell growth at 10 uM after 48 hrs by sulforhodamine B assay; format: functional; conditions: read-out: Activity
[27] = system: UACC-257; assay: Growth inhibition of human UACC257 cells after 48 hrs by sulforhodamine B assay; format: functional; conditions: UACC-257, 48 h; for CC50: read-out: LC50 (the source's name)
[28] = system: RXF 393; assay: Growth inhibition of human RXF393 cells after 48 hrs by sulforhodamine B assay; format: functional; conditions: RXF 393, 48 h
[29] = system: UACC-62; assay: Growth inhibition of human UACC62 cells after 48 hrs by sulforhodamine B assay; format: functional; conditions: UACC-62, 48 h
[30] = system: SW-620; assay: Growth inhibition of human SW620 cells assessed as cell growth at 10 uM after 48 hrs by sulforhodamine B assay; format: functional; conditions: SW-620, 48 h, read-out: Activity
[31] = system: IGROV-1; assay: Growth inhibition of human IGROV1 cells after 48 hrs by sulforhodamine B assay; format: functional; conditions: IGROV-1, 48 h
[32] = system: HCT-116; assay: Growth inhibition of human HCT116 cells after 48 hrs by sulforhodamine B assay; format: functional; conditions: HCT-116, 48 h; for CC50: read-out: LC50 (the source's name)
[33] = system: SK-MEL-28; assay: Growth inhibition of human SK-MEL-28 cells assessed as cell growth at 10 uM after 48 hrs by sulforhodamine B assay; format: functional; conditions: SK-MEL-28, 48 h, read-out: Activity
[34] = system: DU-145; assay: Growth inhibition of human DU145 cells assessed as cell growth at 10 uM after 48 hrs by sulforhodamine B assay; format: functional; conditions: DU-145, 48 h, read-out: Activity

Structure (SMILES): O=C(Nc1cccc(-n2cc(-c3ccncc3)c(-c3ccc(Cl)c(O)c3)n2)c1)Nc1cccc(C(F)(F)F)c1
- growth at 10 µM [1]: 14.6%
- GI50 [2]: 4.11 µM
- LC50 [2]: > 32.5 µM
- TGI [2]: > 32.5 µM
- growth at 10 µM [3]: 17.7%
- GI50 [4]: 3.83 µM
- TGI [4]: > 32.5 µM
- CC50 [4]: > 32.5 µM
- growth at 10 µM [5]: 36%
- growth at 10 µM [6]: 35.1%
- GI50 [7]: 0.962 µM
- pIC50 [7]: 6.02
- TGI [7]: 4.26 µM
- CC50 [7]: 29.2 µM
- GI50 [8]: 1.29 µM
- TGI [8]: > 32.5 µM
- CC50 [8]: > 32.5 µM
- growth at 10 µM [9]: 12.5%
- GI50 [10]: 3.54 µM
- LC50 (concentration killing 50% of cells) [10]: > 32.5 µM
- TGI [10]: 11.6 µM
- GI50 [11]: 7.9 µM
- LC50 (concentration killing 50% of cells) [11]: > 32.5 µM
- TGI [11]: 23.8 µM
- GI50 [12]: 1.46 µM
- LC50 (concentration killing 50% of cells) [12]: > 32.5 µM
- TGI [12]: 14.5 µM
- growth at 10 µM [13]: 30.1%
- growth at 10 µM [14]: 38.5%
- growth at 10 µM [15]: -11.6%
- growth at 10 µM [16]: 10.4%
- growth at 10 µM [17]: 15.6%
- growth at 10 µM [18]: 2.46%
- GI50 [19]: 7.26 µM
- TGI [19]: > 32.5 µM
- CC50 [19]: > 32.5 µM
- growth at 10 µM [20]: 11.2%
- growth at 10 µM [21]: 34.4%
- GI50 [22]: 2.24 µM
- pIC50 [22]: 5.65
- TGI [22]: > 32.5 µM
- CC50 [22]: > 32.5 µM
- GI50 [23]: 6.51 µM
- LC50 (50% lethal concentration) [23]: > 32.5 µM
- TGI [23]: 21.4 µM
- growth at 10 µM [24]: 10.3%
- growth at 10 µM [25]: 1.63%
- growth at 10 µM [26]: 48.2%
- GI50 [27]: 4.34 µM
- TGI [27]: 19.1 µM
- CC50 [27]: > 32.5 µM
- GI50 [28]: 3.02 µM
- LC50 (concentration killing 50% of cells) [28]: > 32.5 µM
- TGI [28]: 12 µM
- GI50 [29]: 1.65 µM
- LC50 (50% lethal concentration) [29]: 21.9 µM
- TGI [29]: 6.91 µM
- growth at 10 µM [30]: 28.5%
- GI50 [31]: 1.64 µM
- LC50 (concentration killing 50% of cells) [31]: > 32.5 µM
- TGI [31]: > 32.5 µM
- GI50 [32]: 1.39 µM
- TGI [32]: 8.26 µM
- CC50 [32]: > 32.5 µM
- growth at 10 µM [33]: 29.4%
- growth at 10 µM [34]: 23.1%

Structure (SMILES): O=C(Nc1cccc(-n2cc(-c3ccncc3)c(-c3ccc(Cl)c(O)c3)n2)c1)Nc1ccc(Cl)c(C(F)(F)F)c1
- growth at 10 µM [1]: 7.46%
- GI50 [2]: 0.978 µM
- LC50 [2]: 12.4 µM
- TGI [2]: 3.33 µM
- growth at 10 µM [3]: 11.2%
- GI50 [4]: 1.15 µM
- TGI [4]: 4.16 µM
- CC50 [4]: > 32.5 µM
- growth at 10 µM [5]: 1.33%
- growth at 10 µM [6]: 3.43%
- GI50 [7]: 0.74 µM
- pIC50 [7]: 6.13
- TGI [7]: 2.06 µM
- CC50 [7]: > 32.5 µM
- GI50 [8]: 0.913 µM
- TGI [8]: > 32.5 µM
- CC50 [8]: > 32.5 µM
- growth at 10 µM [9]: -22.1%
- GI50 [10]: 0.782 µM
- LC50 (concentration killing 50% of cells) [10]: > 32.5 µM
- TGI [10]: 2.39 µM
- GI50 [11]: 2.39 µM
- LC50 (concentration killing 50% of cells) [11]: 16.1 µM
- TGI [11]: 6.75 µM
- GI50 [12]: 0.72 µM
- LC50 (concentration killing 50% of cells) [12]: 24.5 µM
- TGI [12]: 2.5 µM
- growth at 10 µM [13]: 17.3%
- growth at 10 µM [14]: -26.1%
- growth at 10 µM [15]: -54%
- growth at 10 µM [16]: -55.1%
- growth at 10 µM [17]: -31.3%
- growth at 10 µM [18]: -27.3%
- GI50 [19]: 1.06 µM
- TGI [19]: 4.12 µM
- CC50 [19]: 20.7 µM
- growth at 10 µM [20]: 6.62%
- growth at 10 µM [21]: 4.7%
- GI50 [22]: 1.4 µM
- pIC50 [22]: 5.85
- TGI [22]: 6.9 µM
- CC50 [22]: > 32.5 µM
- GI50 [23]: 1.25 µM
- LC50 (50% lethal concentration) [23]: > 32.5 µM
- TGI [23]: 8.07 µM
- growth at 10 µM [24]: -16.6%
- growth at 10 µM [25]: -10.5%
- growth at 10 µM [26]: 24.7%
- GI50 [27]: 0.768 µM
- TGI [27]: 2.1 µM
- CC50 [27]: 8.39 µM
- GI50 [28]: 0.508 µM
- LC50 (concentration killing 50% of cells) [28]: > 32.5 µM
- TGI [28]: 1.67 µM
- GI50 [29]: 0.627 µM
- LC50 (50% lethal concentration) [29]: 3.16 µM
- TGI [29]: 1.45 µM
- growth at 10 µM [30]: -19.7%
- GI50 [31]: 0.715 µM
- LC50 (concentration killing 50% of cells) [31]: > 32.5 µM
- TGI [31]: 2.22 µM
- GI50 [32]: 0.998 µM
- TGI [32]: 3.94 µM
- CC50 [32]: > 32.5 µM
- growth at 10 µM [33]: -31.5%
- growth at 10 µM [34]: -17%
